Experimental findings from PMC5123075, “Structural and antitrypanosomal data of different carbasones of piperitone” (Data in Brief, 2016) are described below.

As usually defined, the IC50 is the midpoint of a concentration-inhibition curve. A higher IC50 goes with weaker potency in that assay. For orientation: LC50 means the concentration that kills 50% of the test population. High values mean a less lethal substance, low ones a more lethal substance.

The structures appear in SMILES notation.

In data set [1] the test system is Chinese Hamster Ovary (CHO) cells. Description: cytotoxicity assay on CHO cells (Stevigny et al.). Type of data set: cell-based. Particulars: CHO cells. The text has this:
(§1) The Antitrypanosomal activity, toxicity test, and cytotoxicity assay were done according to Räz et al., Sleet and Brendel and Stevigny et al., respectively.

Data set [2] is described as follows: cytotoxicity assay on CHO cells (Stevigny et al.). It counts as cell-based, Chinese Hamster. The conditions noted are these: Chinese Hamster Ovary (CHO) cells; Chinese Hamster Ovary cells; mean±SD of three experiments.
From the text: as §1

Data set [3] deals with Trypanosoma brucei brucei (Tbb). Description: in vitro antitrypanosomal activity (Alamar Blue method of Räz et al.). It counts as cell-based. Particulars: for Selectivity index CHO/tbb: IC50 (CHO) / IC50 (Tbb); for Selectivity index WI38/tbb: IC50 (WI38) / IC50 (Tbb); for Selectivity index LC50/tbb: LC50 (A. salina) / IC50 (Tbb); for Antitrypanosomal activity, activity (verbal grade): Tbb; for Antitrypanosomal activity, activity (verbal grade) / IC50: in vitro; for IC50: Trypanosoma brucei, concentration providing 50% death of parasites, mean±SD of three experiments.
From the text: as §1

The test system of data set [4] is human non cancer fibroblast cell line (WI38). Description: cytotoxicity assay on WI38 cells (Stevigny et al.). Type of data set: cell-based. Particulars: for Selectivity index WI38/CHO: IC50 (WI38) / IC50 (CHO), selectivity between the two tested cell lines; for Cytotoxicity WI38, Activity (verbal grade): WI38 cells.
From the text: as §1

The nature of data set [5]: cytotoxicity assay on WI38 cells (Stevigny et al.). It counts as cell-based, human. The conditions noted are these: WI38 non-cancer fibroblast cells; human normal fibroblast cells; mean±SD of three experiments.
From the text: as §1

Data set [6] concerns Artemia salina (Leach) larvae. Description: toxicity test against Artemia salina Leach larvae (Sleet and Brendel). It counts as in vivo. The conditions noted are these: larvae.
From the text: as §1

Assay in data set [7]: as above
Type of data set: in vivo. Particulars: Artemia salina Leach (larvae), in vivo; concentration providing 50% death of larvae; mean±SD of three experiments.
From the text: as §1

On to `CC1=C/C(=N\NC(N)=O)C(C(C)C)CC1` (stereo not drawn) [compound 1, piperitone semicarbazone], for which the “Cytotoxicity CHO, Activity (verbal grade)” value (from here on “Cytotoxicity CHO, Activity”) in data set [1] is reported as “Not toxic”. For the same molecule, the concentration for half-maximal inhibition (IC50) in data set [2] worked out at 214 ± 7.56 µM. Besides, in data set [3], the “Selectivity index CHO/tbb” value is on record as 0.45; the “Selectivity index WI38/tbb” value was found to be 1.01; the “Selectivity index LC50/tbb” value stood at 0.78; the “Antitrypanosomal activity, activity (verbal grade)” value (“Antitrypanosomal activity, activity” for short) is “low”. This molecule came in with an IC50 in data set [3] of 478 ± 7.19 µM. For the same molecule, in data set [4], the “Selectivity index WI38/CHO” value amounted to 2.25 and the “Cytotoxicity WI38, Activity (verbal grade)” value (from here on “Cytotoxicity WI38, Activity”) is “Not cytotoxic”. The concentration for half-maximal inhibition (IC50) in data set [5] amounted to 481 ± 6.69 µM. For the same molecule, in data set [6], the “Toxicity against A. salina Leach, Activity (verbal grade)” value (from here on “Toxicity against A. salina Leach”) was “Not toxic”. The molecule also gave an LC50 in data set [7] of 373 ± 6.6 µM.
With `CC1=C/C(=N\NC(N)=S)C(C(C)C)CC1` (stereo not drawn) [compound 2, piperitone thiosemicarbazone], the “Cytotoxicity CHO, Activity” value in data set [1] is recorded as “Cytotoxic”. Further, the 50% inhibitory concentration (IC50) in data set [2] stood at 21.2 ± 1.37 µM. Further, in data set [3], the “Selectivity index CHO/tbb” value was 0.28; the “Selectivity index WI38/tbb” value is on record as 1.92; the “Selectivity index LC50/tbb” value was determined as 1.16; the “Antitrypanosomal activity, activity” value is given as “moderate”. Besides, in data set [3], the half-inhibitory concentration (IC50) was found to be 74.6 ± 4.44 µM. Moreover, in data set [4], the “Selectivity index WI38/CHO” value worked out at 6.78 and the “Cytotoxicity WI38, Activity” value is listed as “Not cytotoxic”. Also, 143 ± 4.89 µM corresponded to half-maximal inhibition in data set [5] (IC50). Further, the “Toxicity against A. salina Leach” value in data set [6] is listed as “Not toxic”. Besides, in data set [7], the median lethal concentration (LC50) came to 86.7 ± 2.33 µM.
On to `CC1=C/C(=N\NC(=O)Nc2ccccc2)C(C(C)C)CC1` (stereo not drawn) [compound 3, piperitone 4-phenyl semicarbazone], for which the “Cytotoxicity CHO, Activity” value in data set [1] is “Moderate”. This molecule also came in with a half-inhibitory concentration (IC50) in data set [2] of 65.9 ± 4.8 µM. Moreover, in data set [3], the “Antitrypanosomal activity, activity” value is on record as “trypanocidal” and the IC50 is 8.63 ± 0.81 µM. Further, in data set [4], the “Selectivity index WI38/CHO” value is recorded as 1.23 and the “Cytotoxicity WI38, Activity” value is “Not cytotoxic”. For the same molecule, half-maximal inhibition in data set [5] (IC50) required 81 ± 9.15 µM. Moreover, the “Toxicity against A. salina Leach” value in data set [6] is “Not toxic”. This molecule had a 50% lethal concentration (LC50) in data set [7] of 85.5 ± 2.28 µM.
On to `CC1=C/C(=N\NC(=S)Nc2ccccc2)C(C(C)C)CC1` (stereo not drawn) [compound 4, piperitone 4-phenyl thiosemicarbazone], for which the “Cytotoxicity CHO, Activity” value in data set [1] was “Moderate”. The IC50 in data set [2] was 65.3 ± 4.02 µM. Moreover, in data set [3], the “Selectivity index CHO/tbb” value is given as 6.00; the “Selectivity index WI38/tbb” value worked out at 12.30; the “Selectivity index LC50/tbb” value was 2.96; the “Antitrypanosomal activity, activity” value was “trypanocidal”. Further, the IC50 in data set [3] was found to be 10.9 ± 2.52 µM. Also, in data set [4], the “Selectivity index WI38/CHO” value was determined as 2.05 and the “Cytotoxicity WI38, Activity” value was “Not cytotoxic”. The midpoint of inhibition in data set [5], the IC50, lay at 134 ± 5.45 µM. The “Toxicity against A. salina Leach” value in data set [6] was “Toxic”. In data set [7], this molecule gave an LC50 of 32.2 ± 1.66 µM.
